Legend:
[1] = tested on: cells; assay: Toxicity in assays of cell growth; assay type: cell-based; conditions: 2 mM in culture medium for 72 h
Protocol: LZQ and LMQ were loaded into cells efficiently by hypotonic shock or passive incubation. […] As was found for SPQ, LZQ and LMQ were non-toxic to cells in assays of cell growth (2 mM in culture medium for 72 h).

[2] = tested on: cells; assay: Response of intracellular fluorescence to osmotically-induced changes in cell volume; assay type: cell-based
Protocol: Fluorescence microscopy. Fluorescence microscopy measurements were performed as described previously (Chao et al., 1989). Briefly, coverglasses were mounted in a 0.5 ml perfusion chamber in which the cell-free glass surface made contact with an oil immersion objective (Nikon ×40 magnification, numerical aperture[NA] 1.3). Cell fluorescence was excited at 365±10 nm (SPQ) or 420 nm±10 nm (LZQ and LMQ). Emitted fluorescence was detected by a photomultiplier in a Nikon inverted epifluorescence microscope using a 410 nm dichroic mirror and 420 nm barrier filter (SPQ) or a 455 nm dichroic mirror and 500 nm barrier filter (LZQ). For cells colabeled with SPQ and LZQ, SPQ fluorescence was excited at 365±10 nm and detected using a 410 nm dichroic mirror and 455±30 nm interference filter. Confocal fluorescence micrographs were obtained using a Nipkow wheel confocal microscope and cooled CCD camera detector using a ×60 oil immersion objective (Nikon, NA 1.4). LZQ-labeled cells were viewed using a fluorescein filter set (excitation 480±15 nm, emission 520±20 nm).
The similar LZQ lifetime in cells and water predicts that LZQ fluorescence should be relatively insensitive to cell volume in the absence of I^-. […] When cells were exposed to hypoosmotic medium (225 mOsm), SPQ fluorescence increased by 15±2%, whereas LZQ fluorescence increased by only 4±1%.

With `[O-]c1nc2c(N[C@@H]3O[C@H](CO)[C@@H](O)[C@H]3O)ncnc2[n+]2ccccc12` [I, 4-(β-D-ribofuranosylamino)-pyrido [2,1-h] pteridin-11-ium-5-olate] the “toxicity to cells (cell growth)” value [1] was “non-toxic”, the “fluorescence increase upon exposure to hypoosmotic medium” value ([2]; 225 mOsm) was 4±1% and the “fluorescence change upon exposure to hyperosmotic medium” value ([2]; 600 mOsm, absence of I^-) was 5±1%.

From US6201116A, “Halide indicators” (The Regents of the University of California, priority 1999, dated 2001)
